According to paper PMC10653753 (Emerging Microbes & Infections, 2023):
Like-named read-outs stand apart in the source and are kept apart here.

Experiments:
[1] = system: CHIKV; settings: Vero cells, cited from earlier work
[2] = system: CHIKV; assay: Cell-based antiviral efficacy in CHIKV-infected Vero cells, plaque titration; settings: Chikungunya virus, 72 h, read-out: EC50, CHIKV replication
[3] = system: CHIKV; settings: read-out: 50% inhibitory concentration against CHIKV; Huh-7 cells; cited from earlier work
[4] = monkeys, 500 mg/kg; cited from earlier work

In the case of `O=c1cc(-c2ccccc2)oc2cc(O)c(O)c(O)c12` [baicalein], the “50% inhibitory concentration against CHIKV” value [1] is given as 1.891 µg/mL, the IC50 ([1]; read-out: 50% inhibitory concentration against CHIKV) is given as 7 µM and the EC50 [2] is given as 0.52 ± 0.06 µM. The IC50 [3] was 16.9 µM and the “Toxicity throughout the pharmacokinetic study” value [4] was “no apparent toxicity”.
